Measured values published in patent US12486303B2, “Use of peptide for inhibiting functions and expressions of multiple disease biomarkers” (NIBEC CO., LTD., priority 2018, dated 2025).

Key:
HDAC5 protein = target: T1, HDAC5 protein (Homo sapiens, UniProt Q9UQL6); test: Biacore T200 binding affinity to immobilised HDAC5 protein; conditions: CM5 chip, 1:1 binding model
T1 construct: purchased Abcam
Protocol: For this purpose, HDAC5 protein (Abcam, MA, USA) was dissolved in sodium acetate buffer (pH 4.5), and was bound to a dextran-covered sensor chip surface (CM5 chip) using N-hydroxysuccinimide (NHS) and N-ethyl-N0-(3-dimethylaminopropyl)-carbodiimide hydrochloride (EDAC) as crosslinkers. The unreacted active group of dextran was blocked by the addition of ethanolamine (1M) thereto. The number of HDAC5 binding to the chip was measured as 4440RU (1000 RU=1 ng/mm^2). […] Rate constants for association (ka) and dissociation (kd), and a dissociation constant (KD) were calculated using BIAevaluation software and a 1:1 binding model.

[1] = test system: TNBS-induced colitis rats; test: TNBS colitis-induced animal model; assay type: in vivo
Protocol: In order to determine whether or not the peptide according to the present invention has the effect of treating inflammatory colitis in vivo, the effect of treating colitis in a colitis-induced animal model was detected. Before induction of colitis, rats were allowed to drink water freely, although food was not supplied thereto for 24 hours. The rats were lightly anesthetized with ether. A rubber cannula (o.d., 2 mm) was inserted into the colon, the end of which was about 8 cm away from the anus and was located near the splenic flexure. 2,4,6-trinitro benzene sulfonic acid (TNBS; Sigma Chemical Co, St Louis, Missouri, USA) dissolved in a 50% (v/v) ethanolic aqueous solution was injected into the colon through the rubber cannula (15 mg/0.3 mL/rat). 72 hours after induction of colitis, the peptide of SEQ ID NO: 1 (30 mg/kg) was intraperitoneally injected once a day, and after administration for 7 days, the rats were sacrificed. The weight of the rats was measured at 9 AM every day, and the length of the colon was measured from the cecum to the anus using a vernier caliper (Mitutoyo, Japan) after rat sacrifice.
The extracted large intestine was frozen and stored at −70° ° C., the mucous membrane tissue was collected from the muscle layer of the large intestine, the weight of the mucous membrane tissue was measured, and 10 mg of the mucous membrane tissue was lysed in a triple wash buffer (50 mM Tris-HCl, pH 8.0, 150 mM NaCl, 0.1% sodium deoxycholate and 1 mM phenylmethysulfonyl and homogenized. Then, p40, TNF-α, and IL-12 were assayed using an ELISA kit (R&D, Minneapolis, MN, USA).

NF-κB p105/p50 = test: Phospho explorer antibody microarray of LPS-treated RAW 264.7 cells: NF-κB p105/p50; assay type: cell-based; conditions: 200 μM peptide 1 hour then LPS 1 μg/mL 30 minutes, compared to cells treated with only LPS
Protocol: RAW 264.7 cells were starved in 0.5% FBS for 2 hours and treated with 200 μM of the peptide of SEQ ID NO: 1 for 1 hour, and then inflammation was induced at 37° C. for 30 minutes with LPS (1 μg/mL). Cell lysates of untreated cells (NT), cells treated with LPS, and cells treated with SEQ ID NO: 1 and LPS were applied to a Phospho explorer antibody microarray from Full Moon Biosystems. The phospho microarray is capable of recognizing 1318 antibodies related to 30 signaling systems. A standard-size coated glass microscope slide was coated with each antibody. =It was scanned with a GenePix 4100A scanner (Axon Instrument, Foster City, CA, USA). Data were analyzed with Genowiz 4.0™ (Ocimum Biosolutions, Hyderabad, India). The phosphorylation ratio was calculated as follows.
Formula for calculating phosphorylation ratio in each antibody: Phosphorylation ratio=(phosphorylation value of experimental group/non-phosphorylation value of experimental group)/(phosphorylation value of control group/non-phosphorylation value of control group)

T1 sequence (Q9UQL6 whole entry, species assumed): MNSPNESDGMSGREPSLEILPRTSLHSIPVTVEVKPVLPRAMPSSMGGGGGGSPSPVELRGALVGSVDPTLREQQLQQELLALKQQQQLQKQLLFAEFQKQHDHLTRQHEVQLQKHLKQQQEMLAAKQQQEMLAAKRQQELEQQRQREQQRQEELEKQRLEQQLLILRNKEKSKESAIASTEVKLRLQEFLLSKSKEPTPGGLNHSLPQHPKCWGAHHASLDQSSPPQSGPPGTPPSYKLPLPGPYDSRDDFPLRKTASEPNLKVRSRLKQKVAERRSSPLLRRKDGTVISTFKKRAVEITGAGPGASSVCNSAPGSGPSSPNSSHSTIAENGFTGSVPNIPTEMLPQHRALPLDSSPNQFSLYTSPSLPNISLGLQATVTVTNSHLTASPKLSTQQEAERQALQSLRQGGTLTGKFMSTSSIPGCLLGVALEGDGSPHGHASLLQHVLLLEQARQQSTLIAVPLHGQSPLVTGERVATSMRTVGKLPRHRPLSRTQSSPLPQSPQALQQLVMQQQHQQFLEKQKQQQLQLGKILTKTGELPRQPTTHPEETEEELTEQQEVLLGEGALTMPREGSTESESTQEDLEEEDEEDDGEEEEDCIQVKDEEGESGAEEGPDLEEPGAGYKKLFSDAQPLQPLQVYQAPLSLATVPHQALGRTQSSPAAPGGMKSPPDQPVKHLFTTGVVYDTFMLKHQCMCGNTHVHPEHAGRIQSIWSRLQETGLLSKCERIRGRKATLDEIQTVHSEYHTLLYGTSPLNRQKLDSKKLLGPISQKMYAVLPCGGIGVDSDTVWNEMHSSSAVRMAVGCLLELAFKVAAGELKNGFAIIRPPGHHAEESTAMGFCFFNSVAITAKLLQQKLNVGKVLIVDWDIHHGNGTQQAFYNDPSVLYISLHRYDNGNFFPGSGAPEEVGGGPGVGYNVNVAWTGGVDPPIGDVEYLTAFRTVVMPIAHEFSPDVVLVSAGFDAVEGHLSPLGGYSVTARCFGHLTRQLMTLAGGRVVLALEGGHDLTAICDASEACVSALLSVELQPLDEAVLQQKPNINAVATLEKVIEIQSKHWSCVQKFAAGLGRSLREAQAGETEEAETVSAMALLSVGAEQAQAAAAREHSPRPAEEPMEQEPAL

With C[C@@H](O)[C@H](NC(=O)[C@H](CO)NC(=O)[C@H](CS)NC(=O)[C@H](CCCCN)NC(=O)CN)C(=O)N[C@@H](CCCNC(=N)N)C(=O)NCC(=O)N[C@@H](CCCNC(=N)N)C(=O)N[C@@H](CCCCN)C(=O)N[C@@H](CS)C(=O)N[C@@H](CS)C(=O)N[C@@H](CCCNC(=N)N)C(=O)N[C@@H](CCCNC(=N)N)C(=O)N[C@@H](CCCCN)C(=O)N[C@@H](CCCCN)C(=O)O [SEQ ID NO: 1] the kd (HDAC5 protein) was 0.07264 s⁻¹, the kon (HDAC5 protein; read-out: ka) was 108000 M⁻¹ s⁻¹ and the “Expression of IL-12 in large intestine mucous membrane tissue (ELISA)” value ([1]; 30 mg/kg intraperitoneally) was “decreased”. For the same compound, the “Expression of TNF-α in large intestine mucous membrane tissue (ELISA)” value ([1]; 30 mg/kg intraperitoneally) was “decreased”, the “Expression of p40 in large intestine mucous membrane tissue (ELISA)” value ([1]; 30 mg/kg intraperitoneally) was “decreased” and the “Visual observation of large intestine” value ([1]; 30 mg/kg intraperitoneally once a day, 7 days, 8th day) was “appeared similar to the normal group (CON), indicating that colitis was remarkably suppressed”. For the same compound, the “Phosphorylation ratio of NF-κB p105/p50” value (NF-κB p105/p50) was 0.485.
